Common to all, as to type: functional, cell-based
The nature of test [1]: Inhibition of PD1ss-Gluc secretion in doxycyclin-induced human Flp-In-T-REx-293 cells measured by Gaussia luciferase reporter gene method. On the technique in general: A reporter such as luciferase makes a cellular process visible.
The nature of test [2]: Inhibition of PR1ss-Gluc secretion in doxycyclin-induced human Flp-In-T-REx-293 cells measured by Gaussia luciferase reporter gene method.
Test [3] in a line: Inhibition of constitutively active VCAMss-Gluc secretion in human Flp-In-T-REx-293 cells measured by Gaussia luciferase reporter gene method.
Test [4] can be described thus: Inhibition of constitutively active PR1ss-Gluc secretion in human Flp-In-T-REx-293 cells measured by Gaussia luciferase reporter gene method.

pIC50: −log10 of the molar value.

Consider `CC(C)(C)c1csc(NC(=O)c2cn(Cc3ccccc3)c3ccccc23)n1`, for which the results for the pIC50 in test [1] and in test [2] were 5.15 and under 4.60, respectively.

On to `CCC(C)n1cc(CC(=O)Nc2nc(C(C)(C)C)cs2)c2cc(Cl)ccc21` (configuration not stated), for which the pIC50 (in general, the negative decadic logarithm of the IC50, by convention in mol/L) in test [1] was 5.36; in test [2] it was under 4.60.

For the compound `CC(=O)N(C)[C@@H](Cc1cn(Cc2ccc(F)cc2)c2ccccc12)C(=O)Nc1nc(C(C)(C)C)cs1`, the pIC50 in test [1] and in test [2] was under 4.60 each time.

Consider `CC(C)(C)c1csc(NC(=O)Cc2cn(-c3ccccc3Cl)c3ccc(Cl)cc23)n1`, for which the pIC50 in test [1] was 5.36; in test [2], under 4.60.

For the compound `CC(C)(C)c1csc(NC(=O)Cc2cn(Cc3ccccc3S(C)(=O)=O)c3ccc(Cl)cc23)n1`, the pIC50 is 4.88 in test [1] and under 4.60 in test [2].

For the compound `CC(C)(C)c1csc(NC(=O)Cc2cn(Cc3ccccc3C(N)=O)c3ccc(Cl)cc23)n1`, the pIC50 in test [1] and in test [2] was under 4.60 throughout.

Take `CC(C)(C)c1csc(NC(=O)Cc2cn(-c3ccc(Cl)cc3)c3ccc(Cl)cc23)n1`: the pIC50 in test [1] was 5.57; in test [2] it was under 4.60.

Regarding `CC(C)(C)c1csc(NC(=O)Cc2cn(C3CCCC3)c3ccc(Cl)cc23)n1`, the results for the pIC50 in test [1] and in test [2] were 5.19 and under 4.60, respectively.

`CC(C)(C)c1csc(NC(=O)Cc2cn(Cc3ccccc3)c3ccc(C#N)cc23)n1`: the pIC50 in test [1] is 5.22; in test [2], under 4.60.

For the compound `CC(C)(C)c1csc(NC(=O)Cc2cn(-c3ccccn3)c3ccc(Cl)cc23)n1`, the pIC50 in test [1] is 5.06; in test [2], under 4.60.

With `CC(C)(C)c1csc(NC(=O)c2cccc(C#N)c2)n1`, the pIC50 in test [3] and in test [4] was under 4.60 each time.

Consider `CC(C)(C)c1csc(NC(=O)c2ccc3[nH]ncc3c2)n1`, for which the pIC50 was 4.68 in test [3] and under 4.60 in test [4].

Consider `CC(C)(C)c1csc(NC(=O)c2cc3cc(C(F)(F)F)ccc3s2)n1`, for which the pIC50 was 4.78 in test [3] and under 4.60 in test [4].

With `CC(C)(C)c1csc(NC(=O)Cc2cc(F)cc(Cl)c2)n1`, the pIC50 was 5.72 in test [3] and under 4.60 in test [4].

Turning to `CC(C)(C)c1csc(NC(=O)CN2CCCCC2)n1`, the pIC50 in test [3] and in test [4] was under 4.60 in each case.

With `CC(C)(C)c1csc(NC(=O)C2(c3cccc(Cl)c3)CC2)n1`, the pIC50 in test [3] was 4.71; in test [4], under 4.60.

Regarding `CC(C)(C)c1csc(NC(=O)Cc2cn(CCc3ccccc3)c3ccc(Cl)cc23)n1`, the pIC50 in test [1] is 5.38; in test [2], under 4.60.

Take `CC(C)(C)c1csc(NC(=O)Cc2cn(Cc3ccccc3)c3ccc(Br)cc23)n1`: the results for the pIC50 in test [1] and in test [2] were 5.21 and under 4.60, respectively.

As to `Cn1c(C(=O)Nc2nc(C(C)(C)C)cs2)cc2ccccc21`, the pIC50 was 5.66 in test [3] and under 4.60 in test [4].

With `CC(C)(C)c1csc(NC(=O)Cc2cc(F)c(F)c(F)c2)n1`, the figures for the pIC50 in test [3] and in test [4] were 5.09 and under 4.60, respectively.

Take `CC(C)(C)c1csc(NC(=O)c2cc3cc(Br)ccc3s2)n1`: the pIC50 in test [3] and in test [4] was under 4.60 in each case.

As for `CC(C)(C)c1csc(NC(=O)COC2CCCCC2)n1`, the pIC50 in test [3] and in test [4] was under 4.60 in each case.

In the case of `CCOC(=O)CC(C)(C)c1csc(NC(=O)Cc2cc(Cl)cc(Cl)c2)n1`, the pIC50 in test [3] was 5.05; in test [4], under 4.60.

With `CC(C)(C)c1csc(NC(=O)c2cc3cc(-c4ccc(Cl)cc4)ccc3s2)n1`, the figures for the pIC50 in test [3] and in test [4] were 4.86 and under 4.60, respectively.

With `CC(C)(C)c1csc(NC(=O)Cn2cnc3ccccc32)n1`, the pIC50 in test [3] and in test [4] was under 4.60 in each case.

`CC(C)(C)c1csc(NC(=O)Cc2csc3ccc(Br)cc23)n1`: the pIC50 in test [3] is 5.85; in test [4], under 4.60.

On to `CC(C)(C)c1csc(NC(=O)Cn2ncc3ccccc32)n1`, for which the pIC50 in test [3] and in test [4] was under 4.60 throughout.

In the case of `CC(C)(C)c1csc(NC(=O)C2CCOC2)n1` (configuration not stated), the negative-log IC50 (pIC50) in test [3] and in test [4] was under 4.60 throughout.

Turning to `CC(C)(C)c1csc(NC(=O)c2cc3cc(-c4cccc(Cl)c4)ccc3s2)n1`, the pIC50 is 5.30 in test [3] and under 4.60 in test [4].

For the compound `CC(C)(C)c1csc(NC(=O)c2cc3cc(-c4ccccc4)ccc3s2)n1`, the pIC50 in test [3] was 4.96; in test [4], under 4.60.

Turning to `CC(C)(C)c1csc(NC(=O)[C@H](O)c2cccc(Cl)c2)n1`, the pIC50 in test [3] and in test [4] was under 4.60 in each case.

Regarding `Cc1ccc(C(=O)Nc2nc(C(F)(F)F)cs2)s1`, the pIC50 in test [3] and in test [4] was under 4.60 each time.

Regarding `Cc1cc(C(=O)N(C)c2nc(C(C)(C)C)cs2)cs1`, the pIC50 in test [3] and in test [4] was under 4.60 throughout.

As to `CC(C)(C)c1csc(NC(=O)Cc2csc3ccc(-c4ccccc4)cc23)n1`, the figures for the pIC50 in test [3] and in test [4] were 5.34 and under 4.60, respectively.

In the case of `CC(C)(C)c1csc(NC(=O)CC2CCCC2)n1`, the pIC50 is 5.01 in test [3] and under 4.60 in test [4].

Consider `CC(C)(C)c1csc(NC(=O)C2Cc3ccccc3C2)n1`, for which the results for the pIC50 in test [3] and in test [4] were 4.95 and under 4.60, respectively.

As to `CC(C)(CCO)c1csc(NC(=O)Cc2csc3ccc(Cl)cc23)n1`, the pIC50 in test [3] and in test [4] was under 4.60 in each case.

Consider `CC(C)(C)c1csc(NC(=O)c2cc3ccccc3n2Cc2ccccc2)n1`, for which the figures for the pIC50 in test [1] and in test [2] were 5.08 and under 4.60, respectively.

For the compound `CC(C)(C)c1csc(NC(=O)c2cc3cc(-c4cccnc4)ccc3s2)n1`, the pIC50 in test [3] and in test [4] was under 4.60 in each case.

`CC(C)(C)c1csc(NC(=O)Cc2c[nH]c3ccccc23)n1`: the pIC50 in test [3] and in test [4] was under 4.60 each time.

Take `CC(C)(C)c1csc(NC(=O)C2CCOCC2)n1`: the pIC50 in test [3] and in test [4] was under 4.60 throughout.

Take `CC(C)(C)c1csc(NC(=O)c2ccnnc2)n1`: the pIC50 in test [3] and in test [4] was under 4.60 each time.

For the compound `CC(C)(C)c1csc(NC(=O)Cc2cc(Cl)cc(C(F)(F)F)c2)n1`, the pIC50 in test [3] is 5.81; in test [4] it was under 4.60.

Regarding `CC(C)c1cccc(C(=O)Nc2nc(C(C)(C)C)cs2)c1`, the pIC50 in test [3] and in test [4] was under 4.60 in each case.

As to `Cc1ccc(CC(=O)Nc2nc(C(C)(C)C)cs2)c(C)c1`, the pIC50 is 5.13 in test [3] and under 4.60 in test [4].

`CC(C)(C)c1csc(NC(=O)Cc2cn(Cc3ccccc3C#N)c3ccc(Cl)cc23)n1`: the pIC50 in test [1] is 5.44; in test [2], under 4.60.

For the compound `COc1cccc(CC(=O)Nc2nc(C(C)(C)C)cs2)c1`, the values for the pIC50 in test [3] and in test [4] were 4.99 and under 4.60, respectively.

With `Cc1cc(C(=O)Nc2nc(C(C)(C)C)cs2)no1`, the pIC50 in test [3] and in test [4] was under 4.10 throughout.

In the case of `COc1ccc2c(c1)c(CC(=O)Nc1nc(C(C)(C)C)cs1)cn2Cc1ccccc1`, the pIC50 in test [1] was 5.47; in test [2], under 4.60.

With `CC(C)(C)c1csc(NC(=O)Cc2ccc(Cl)cc2)n1`, the pIC50 in test [3] was 5.31; in test [4], under 4.60.

Take `C[C@H](C(=O)Nc1nc(C(C)(C)C)cs1)c1ccccc1`: the pIC50 in test [3] and in test [4] was under 4.60 each time.

With `CCCc1ccc2sc(C(=O)Nc3nc(C(C)(C)C)cs3)cc2c1`, the pIC50 in test [3] was 4.85; in test [4], under 4.60.

In the case of `CC(C)(C)c1csc(NC(=O)Cc2ccc(Cl)c(Cl)c2)n1`, the pIC50 in test [3] was 5.58; in test [4], under 4.60.

For `CC(C)(C)c1csc(NC(=O)[C@@H]2CCCO2)n1`, the pIC50 in test [3] and in test [4] was under 4.60 throughout.

For `Cc1cc(C(=O)Nc2nc(C(C)(C)C)cs2)sc1C`, the pIC50 in test [3] was 5.04; in test [4] it was under 4.60.

In the case of `CN[C@@H](Cc1cn(Cc2ccc(F)cc2)c2ccccc12)C(=O)Nc1nc(C(C)(C)C)cs1`, the pIC50 in test [1] and in test [2] was under 4.60 in each case.

As for `C[C@@H](C(=O)Nc1nc(C(C)(C)C)cs1)c1ccccc1`, the figures for the pIC50 in test [3] and in test [4] were 4.95 and under 4.60, respectively.

For `CC(C)(C)c1csc(NC(=O)Cc2cccc(Br)c2)n1`, the pIC50 in test [3] was 5.24; in test [4] it was under 4.60.

Regarding `CC(C)(C)c1nc(NC(=O)Cc2csc3ccc(Cl)cc23)sc1Cl`, the figures for the pIC50 in test [3] and in test [4] were 4.93 and under 4.60, respectively.

As for `CC(C)(C)c1csc(NC(=O)C2=CCCC2)n1`, the pIC50 in test [3] and in test [4] was under 4.60 each time.

Take `CC(C)(C)c1csc(NC(=O)Cc2cn(Cc3ccccc3)c3ccc(C(N)=O)cc23)n1`: the pIC50 in test [1] and in test [2] was under 4.60 in each case.

On to `COCCC(C)(C)c1csc(NC(=O)Cc2csc3ccc(Cl)cc23)n1`, for which the pIC50 in test [3] and in test [4] was under 4.60 in each case.

For the compound `CC(C)(C)c1csc(NC(=O)c2cccc(C(F)(F)F)c2)n1`, the pIC50 in test [3] was 5.12; in test [4], under 4.10.

As to `Cn1cc(CC(=O)Nc2nc(C(C)(C)C)cs2)c2ccccc21`, the pIC50 in test [3] was 5.35; in test [4], under 4.60.

As to `CC(C)(C)c1csc(NC(=O)Cc2cc3ccccc3s2)n1`, the pIC50 in test [3] and in test [4] was under 4.60 in each case.

With `CC(C)(CCO)c1csc(NC(=O)Cc2cc(Cl)cc(Cl)c2)n1`, the pIC50 in test [3] and in test [4] was under 4.60 in each case.

As to `CC(C)(C)c1csc(NC(=O)Cc2cccc(C(F)(F)F)c2)n1`, the results for the pIC50 in test [3] and in test [4] were 5.17 and under 4.60, respectively.

Consider `CC(C)(C)c1csc(NC(=O)Cc2cccc3ccccc23)n1`, for which the pIC50 in test [3] was 5.46; in test [4] it was under 4.60.

With `CC#Cc1ccc2sc(C(=O)Nc3nc(C(C)(C)C)cs3)cc2c1`, the pIC50 was 5.30 in test [3] and under 4.60 in test [4].

In the case of `CC(C)(C)c1csc(NC(=O)c2ccc3ocnc3c2)n1`, the pIC50 in test [3] and in test [4] was under 4.60 each time.

`CC(C)(C)c1csc(NC(=O)Cc2coc3ccccc23)n1`: the pIC50 in test [3] is 5.28; in test [4] it was under 4.60.

The values are drawn from ChEMBL document CHEMBL5050843, “Amide substituted thiazoles as protein secretion inhibitors” (2019).
